Non-standard residues stand in square brackets, D forms with d. Residues, ends and D or L forms follow the SMILES beside them. pY = N[C@@H](Cc1ccc(OP(=O)(O)O)cc1)C(=O)O

Holding throughout (assay): biochemical
Holding throughout (format): binding

In one assay the target is T1, PLCG2(SH2dom.N-term.) (Homo sapiens, UniProt P16885).
T1 construct: SH2dom.N-term. denotes SH2 domain closest to N-terminus of protein; made in house; host or cells: HEK293 (transient transfection, unpurified extract)
T1 sequence (P16885 532-635 limits assumed): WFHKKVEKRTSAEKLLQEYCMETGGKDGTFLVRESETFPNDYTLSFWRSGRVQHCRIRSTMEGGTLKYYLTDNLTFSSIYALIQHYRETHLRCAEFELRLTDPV

The target of a further assay is T2, PLCG1(SH2dom.N-term.) (Homo sapiens, UniProt P19174).
T2 construct: SH2dom.N-term. denotes SH2 domain closest to N-terminus of protein; made in house; host or cells: HEK293 (transient transfection, unpurified extract)
T2 sequence (P19174 550-657 limits assumed): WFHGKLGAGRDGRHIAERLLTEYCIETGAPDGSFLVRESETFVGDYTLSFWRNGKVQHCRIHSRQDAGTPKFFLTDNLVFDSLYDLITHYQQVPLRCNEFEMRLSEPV

A further assay has as its target T3, SHIP1 (Homo sapiens, UniProt Q92835).
T3 construct: made in house; host or cells: HEK293 (transient transfection), unpurified extract
T3 sequence (Q92835 1-1189): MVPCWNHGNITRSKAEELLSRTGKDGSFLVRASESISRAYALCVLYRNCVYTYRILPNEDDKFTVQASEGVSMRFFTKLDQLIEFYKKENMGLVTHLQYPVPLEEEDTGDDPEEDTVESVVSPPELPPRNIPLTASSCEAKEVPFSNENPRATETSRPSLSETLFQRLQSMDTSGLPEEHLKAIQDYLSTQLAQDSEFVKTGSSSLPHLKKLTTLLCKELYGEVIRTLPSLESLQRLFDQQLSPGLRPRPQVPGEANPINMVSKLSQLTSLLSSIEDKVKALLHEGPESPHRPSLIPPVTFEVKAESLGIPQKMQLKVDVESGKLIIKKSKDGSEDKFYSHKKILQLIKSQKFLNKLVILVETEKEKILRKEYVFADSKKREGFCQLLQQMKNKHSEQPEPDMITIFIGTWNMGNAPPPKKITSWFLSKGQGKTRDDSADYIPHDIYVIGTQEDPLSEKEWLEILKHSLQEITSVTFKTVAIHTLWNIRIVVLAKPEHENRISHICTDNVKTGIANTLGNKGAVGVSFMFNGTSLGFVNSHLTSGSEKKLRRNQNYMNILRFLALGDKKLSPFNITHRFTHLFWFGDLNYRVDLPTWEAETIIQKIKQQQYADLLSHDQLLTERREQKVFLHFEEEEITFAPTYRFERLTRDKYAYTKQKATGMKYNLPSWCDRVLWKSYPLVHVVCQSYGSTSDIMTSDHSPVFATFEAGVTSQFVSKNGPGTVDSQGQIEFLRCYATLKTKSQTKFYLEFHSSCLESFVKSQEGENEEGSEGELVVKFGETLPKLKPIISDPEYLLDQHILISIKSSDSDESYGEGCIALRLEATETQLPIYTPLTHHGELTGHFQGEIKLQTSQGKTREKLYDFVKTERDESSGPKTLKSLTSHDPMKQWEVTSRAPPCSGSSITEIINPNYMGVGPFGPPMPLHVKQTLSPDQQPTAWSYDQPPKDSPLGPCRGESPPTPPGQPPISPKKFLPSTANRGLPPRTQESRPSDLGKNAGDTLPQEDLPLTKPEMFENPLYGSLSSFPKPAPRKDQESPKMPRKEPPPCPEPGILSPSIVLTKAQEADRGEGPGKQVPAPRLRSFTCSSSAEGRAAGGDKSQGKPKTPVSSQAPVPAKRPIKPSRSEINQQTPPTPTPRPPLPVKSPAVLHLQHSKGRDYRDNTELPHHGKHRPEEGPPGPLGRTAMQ

The next assay addresses T4, SHIP2 (Homo sapiens, UniProt O15357).
T4 construct: made in house; host or cells: HEK293 (transient transfection), unpurified extract
T4 sequence (O15357 1-1258): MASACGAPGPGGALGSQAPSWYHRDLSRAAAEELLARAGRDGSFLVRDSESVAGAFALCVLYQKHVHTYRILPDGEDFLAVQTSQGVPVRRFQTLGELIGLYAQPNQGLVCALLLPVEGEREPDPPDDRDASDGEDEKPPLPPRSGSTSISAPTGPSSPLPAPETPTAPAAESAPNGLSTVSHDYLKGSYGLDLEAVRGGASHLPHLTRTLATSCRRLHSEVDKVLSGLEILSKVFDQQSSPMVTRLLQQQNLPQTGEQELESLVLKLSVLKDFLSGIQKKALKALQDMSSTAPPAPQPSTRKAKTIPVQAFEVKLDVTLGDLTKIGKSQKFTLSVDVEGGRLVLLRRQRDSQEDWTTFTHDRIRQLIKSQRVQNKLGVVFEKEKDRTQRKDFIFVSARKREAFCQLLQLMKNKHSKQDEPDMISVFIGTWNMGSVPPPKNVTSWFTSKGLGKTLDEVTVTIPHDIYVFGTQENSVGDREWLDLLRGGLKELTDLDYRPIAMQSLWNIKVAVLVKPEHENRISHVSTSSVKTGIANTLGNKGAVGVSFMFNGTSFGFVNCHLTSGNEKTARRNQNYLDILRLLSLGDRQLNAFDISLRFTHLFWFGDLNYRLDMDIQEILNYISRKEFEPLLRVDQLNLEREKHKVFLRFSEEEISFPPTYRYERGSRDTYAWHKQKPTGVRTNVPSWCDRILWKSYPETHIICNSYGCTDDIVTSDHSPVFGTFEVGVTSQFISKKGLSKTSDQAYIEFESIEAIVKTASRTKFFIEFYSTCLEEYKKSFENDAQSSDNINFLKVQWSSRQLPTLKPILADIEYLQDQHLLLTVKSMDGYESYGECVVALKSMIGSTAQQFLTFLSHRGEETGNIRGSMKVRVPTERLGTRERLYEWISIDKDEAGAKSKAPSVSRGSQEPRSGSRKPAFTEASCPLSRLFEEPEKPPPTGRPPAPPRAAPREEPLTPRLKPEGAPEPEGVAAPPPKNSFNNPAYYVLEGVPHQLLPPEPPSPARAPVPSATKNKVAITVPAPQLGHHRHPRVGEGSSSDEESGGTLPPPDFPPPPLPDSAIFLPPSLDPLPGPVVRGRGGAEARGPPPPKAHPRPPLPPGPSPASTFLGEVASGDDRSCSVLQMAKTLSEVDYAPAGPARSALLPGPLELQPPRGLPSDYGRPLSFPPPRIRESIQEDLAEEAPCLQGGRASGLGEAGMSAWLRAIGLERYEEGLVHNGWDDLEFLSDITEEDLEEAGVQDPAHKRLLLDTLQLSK

The target in another assay is T5, CRK (Homo sapiens, UniProt P46108).
T5 construct: the DNA-tagged SH2 domain concentrations used in this study were <0.1 nM; made in house; host or cells: HEK293 (transient transfection; unpurified extract)
T5 sequence (P46108 13-118 limits assumed): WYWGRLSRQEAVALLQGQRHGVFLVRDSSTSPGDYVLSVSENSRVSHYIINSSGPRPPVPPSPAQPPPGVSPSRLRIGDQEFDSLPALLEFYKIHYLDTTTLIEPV

The target of a further assay is T6, ABL2 (Homo sapiens, UniProt P42684).
T6 construct: the DNA-tagged SH2 domain concentrations used in this study were <0.1 nM; made in house; host or cells: HEK293 (transient transfection; unpurified extract)
T6 sequence (P42684 173-263 limits assumed): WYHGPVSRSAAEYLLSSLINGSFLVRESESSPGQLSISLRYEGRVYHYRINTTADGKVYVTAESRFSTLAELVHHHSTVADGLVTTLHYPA

The next assay deals with T7, GRB7 (Homo sapiens, UniProt Q14451).
T7 construct: the DNA-tagged SH2 domain concentrations used in this study were <0.1 nM; made in house; host or cells: HEK293 (transient transfection; unpurified extract)
T7 sequence (Q14451 431-527 limits assumed): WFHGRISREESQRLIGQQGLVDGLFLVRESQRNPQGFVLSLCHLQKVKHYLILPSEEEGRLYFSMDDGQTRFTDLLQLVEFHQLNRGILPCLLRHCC

For another assay, the target named is T8, GRB14 (Homo sapiens, UniProt Q14449).
T8 construct: the DNA-tagged SH2 domain concentrations used in this study were <0.1 nM; made in house; host or cells: HEK293 (transient transfection; unpurified extract)
T8 sequence (Q14449 439-535 limits assumed): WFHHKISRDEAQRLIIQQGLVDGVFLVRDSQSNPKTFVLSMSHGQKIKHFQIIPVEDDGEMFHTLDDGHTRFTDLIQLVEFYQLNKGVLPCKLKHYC

Another assay addresses T9, FES (Homo sapiens, UniProt P07332).
T9 construct: the DNA-tagged SH2 domain concentrations used in this study were <0.1 nM; made in house; host or cells: HEK293 (transient transfection; unpurified extract)

The next assay has as its target T10, CSK (Homo sapiens, UniProt P41240).
T10 construct: the DNA-tagged SH2 domain concentrations used in this study were <0.1 nM; made in house; host or cells: HEK293 (transient transfection; unpurified extract)
T10 sequence (P41240 82-171 limits assumed): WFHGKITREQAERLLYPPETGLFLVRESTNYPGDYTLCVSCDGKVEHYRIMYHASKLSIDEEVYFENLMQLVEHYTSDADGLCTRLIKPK

The target of a further assay is T11, LNK (SH2B3) (Homo sapiens, UniProt Q9UQQ2).
T11 construct: the DNA-tagged SH2 domain concentrations used in this study were <0.1 nM; made in house; host or cells: HEK293 (transient transfection, unpurified extract)
T11 sequence (Q9UQQ2 364-462 limits assumed): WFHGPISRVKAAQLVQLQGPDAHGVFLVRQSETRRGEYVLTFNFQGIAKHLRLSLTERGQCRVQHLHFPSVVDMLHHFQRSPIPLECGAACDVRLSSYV

T9 sequence (P07332 460-549 limits assumed): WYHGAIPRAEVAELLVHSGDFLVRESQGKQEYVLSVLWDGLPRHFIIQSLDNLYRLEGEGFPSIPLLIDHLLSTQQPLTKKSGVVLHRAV

For `CC[C@H](C)[C@H](NC(=O)[C@@H](NC(=O)[C@H](CC(C)C)NC(=O)[C@H](Cc1ccc(OP(=O)(O)O)cc1)NC(=O)[C@H](CCCNC(=N)N)NC(=O)[C@H](CCC(N)=O)NC(=O)[C@@H]1CCCN1C(=O)[C@H](CC(=O)O)NC(C)=O)C(C)C)C(=O)N[C@@H](CCC(N)=O)C(=O)NCC(=O)N[C@@H](CC(=O)O)C(=O)N[C@@H](CCC(=O)O)C(=O)N[C@@H](CC(=O)O)C(N)=O` [Ac-DPQRpYLVIQGDED-NH2] (Ac-DPQR[pY]LVIQGDED-NH2), on PLCG2(SH2dom.N-term.), binding was put at a Kd of 521 ± 25.4 nM. Compound `CSCC[C@H](NC(=O)[C@H](CO)NC(=O)[C@H](CC(C)C)NC(=O)[C@H](CC(=O)O)NC(=O)[C@H](CC(C)C)NC(=O)[C@H](Cc1ccc(OP(=O)(O)O)cc1)NC(=O)[C@H](CCC(=O)O)NC(=O)[C@H](CCC(N)=O)NC(=O)[C@H](CC(N)=O)NC(=O)[C@H](CO)NC(=O)[C@@H](NC(C)=O)[C@@H](C)O)C(N)=O` [Ac-TSNQEpYLDLSM-NH2] (Ac-TSNQE[pY]LDLSM-NH2) registered a Kd at PLCG1(SH2dom.N-term.) of 116 ± 6.69 nM. As to `CC(=O)N[C@@H](CC(N)=O)C(=O)N[C@@H](CC(N)=O)C(=O)N[C@H](C(=O)N[C@@H](C)C(=O)N[C@@H](Cc1ccc(OP(=O)(O)O)cc1)C(=O)N[C@@H](CO)C(=O)N[C@@H](Cc1ccc(O)cc1)C(=O)N[C@@H](CC(C)C)C(=O)N[C@@H](CC(C)C)C(=O)N[C@@H](CC(N)=O)C(=O)N[C@@H](CCCNC(=N)N)C(N)=O)C(C)C` [Ac-NNVApYSYLLNR-NH2] (Ac-NNVA[pY]SYLLNR-NH2), the Kd was determined as 241 ± 71.8 nM at SHIP1 and 3310 ± 622 nM at SHIP2. Compound `CC(=O)N[C@@H](CCC(=O)O)C(=O)N1CCC[C@H]1C(=O)N[C@@H](C)C(=O)N[C@@H](Cc1c[nH]cn1)C(=O)N[C@@H](C)C(=O)N[C@@H](Cc1ccc(OP(=O)(O)O)cc1)C(=O)N[C@@H](C)C(=O)N[C@@H](CCC(N)=O)C(=O)N1CCC[C@H]1C(=O)N[C@@H](CCC(N)=O)C(=O)N[C@H](C(=O)N[C@H](C(N)=O)[C@@H](C)O)[C@@H](C)O` [Ac-EPAHApYAQPQTT-NH2] (Ac-EPAHA[pY]AQPQTT-NH2) gave a Kd at CRK of 1520 ± 695 nM. Take `CC[C@H](C)[C@H](NC(=O)[C@@H]1CCCN1C(=O)[C@H](CO)NC(=O)[C@H](CO)NC(C)=O)C(=O)N[C@@H](Cc1ccc(OP(=O)(O)O)cc1)C(=O)N[C@@H](CCC(=O)O)C(=O)N[C@@H](CC(=O)O)C(=O)N[C@@H](C)C(=O)N[C@@H](C)C(N)=O` [Ac-SSPIpYEDAA-NH2] (Ac-SSPI[pY]EDAA-NH2): at ABL2, binding was put at a Kd of 6200 ± 584 nM. Compound `CC(=O)N1CCC[C@H]1C(=O)N[C@@H](CCC(=O)O)C(=O)N[C@@H](Cc1ccc(OP(=O)(O)O)cc1)C(=O)N[C@H](C(=O)N[C@@H](CC(N)=O)C(=O)N[C@@H](CCC(N)=O)C(N)=O)C(C)C` [Ac-PEpYVNQ-NH2] (Ac-PE[pY]VNQ-NH2) yielded a Kd on GRB7 of 4470 ± 557 nM.

As to `CSCC[C@H](NC(=O)[C@@H](NC(=O)[C@H](CCC(=O)O)NC(=O)[C@H](Cc1ccc(OP(=O)(O)O)cc1)NC(=O)[C@H](CC(C)C)NC(=O)[C@@H]1CCCN1C(=O)[C@H](CC(=O)O)NC(=O)[C@@H]1CCCN1C(C)=O)C(C)C)C(=O)N[C@@H](CC(C)C)C(=O)N[C@@H](CCCCN)C(=O)N[C@@H](CS)C(=O)N[C@@H](Cc1c[nH]c2ccccc12)C(=O)N[C@@H](CC(=O)O)C(N)=O` (Ac-PDPL[pY]EVMLKCWD-NH2), the Kd on GRB14 came to 298 ± 131 nM. In the case of `CC(=O)N[C@H](C(=O)N[C@@H](Cc1ccc(OP(=O)(O)O)cc1)C(=O)N[C@@H](CCC(=O)O)C(=O)N1CCC[C@H]1C(=O)N[C@H](C(=O)N[C@@H](CO)C(=O)N[C@@H](Cc1ccc(O)cc1)C(N)=O)C(C)C)C(C)C` [Ac-VpYEPVSY-NH2] (Ac-V[pY]EPVSY-NH2), on FES, the Kd is 711 ± 170 nM. `CC[C@H](C)[C@H](NC(C)=O)C(=O)N[C@@H](CO)C(=O)N[C@@H](C)C(=O)N[C@@H](CCSC)C(=O)N[C@@H](Cc1ccc(OP(=O)(O)O)cc1)C(=O)N[C@@H](CO)C(=O)N[C@@H](CO)C(=O)N[C@H](C(=O)N[C@@H](CCSC)C(=O)N[C@@H](CCCCN)C(N)=O)C(C)C` [Ac-ISAMpYSSVMK-NH2] (Ac-ISAM[pY]SSVMK-NH2) yielded a Kd at CSK of 48.3 ± 8.04 nM. On LNK (SH2B3), `CC(=O)N[C@@H](CC(N)=O)C(=O)N[C@H](C(=O)NCC(=O)N[C@@H](CC(=O)O)C(=O)N[C@@H](Cc1ccc(OP(=O)(O)O)cc1)C(=O)N[C@@H](Cc1ccc(O)cc1)C(=O)N[C@@H](CC(=O)O)C(=O)N[C@@H](CC(C)C)C(=O)N[C@@H](Cc1ccc(O)cc1)C(=O)NCC(N)=O)[C@@H](C)O` [Ac-NTGDpYYDLYG-NH2] (Ac-NTGD[pY]YDLYG-NH2) had a Kd of 3220 ± 595 nM.
